In patent publication US9174980B2, “Heterocyclic compounds as inhibitors of leukotriene production” (Boehringer Ingelheim International GmbH, priority 2012, dated 2015):

Columns and labels:
[1] = biological target: T1, recombinant human FLAP protein (Homo sapiens, UniProt P20292); experiment: FLAP binding assay (Scintillation Proximity Assay, displacement of [125I]L-691,831); details: read-out: Human FLAP SPA Binding (IC50 nM)
T1 construct: made in house; host or cells: Sf9 insect cells (membrane fraction, 100,000 x g pellet)
T1 sequence (P20292 1-161): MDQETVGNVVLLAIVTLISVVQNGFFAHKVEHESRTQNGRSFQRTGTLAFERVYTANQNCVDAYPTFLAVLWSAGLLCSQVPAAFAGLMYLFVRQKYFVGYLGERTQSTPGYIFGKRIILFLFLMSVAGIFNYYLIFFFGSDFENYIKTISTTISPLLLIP
Description: Compounds are assessed for the ability to bind to FLAP in a binding assay that measures compound-specific displacement of an iodinated (^125I) FLAP inhibitor via a Scintillation Proximity Assay format (adapted from S. Charleson et al., Mol. Pharmacol., 1992, 41, 873-879).
Cell pellets produced from sf9 insect cells expressing recombinant human FLAP protein are resuspended in buffer A [15 mM Tris-HCl (pH 7.5), 2 mM MgCl2, 0.3 mM EDTA, 1 mM PMSF]. The cells are lysed with a Dounce homogenizer and the material is centrifuged at 10,000×g for 10 minutes. The supernatant is then collected and centrifuged at 100,000×g for 60 minutes. To prepare membrane protein for an assay, an aliquot of the 100,000×g pellet is resuspended in 1 ml of buffer A, Dounce homogenized, and finally subjected to polytron mixing (30 seconds). Membrane protein (25 μl, 5 μg) is mixed with WGA SPA beads (Amersham) and stirred for 1 h. To an assay plate (Perkin Elmer FlexiPlate) is added 25 μl of test compound prepared in Binding buffer [100 mM Tris (pH 7.5), 140 mM NaCl, 5% glycerol, 2 mM EDTA, 0.5 mM TCEP, 0.05% Tween 20], 25 μl of [^125I]L-691,831 (an iodinated analog of MK-591, Charleson et al. Mol. Pharmacol., 41, 873-879, 1992) and finally 50 μl of the bead/protein mixture. (final concentrations: beads, 200 μg/well; protein, 5 μg/well; [^125I] probe, 0.08 nM/well (17 nCi/well). The plates are shaken for 2 h before reading on a Microbeta plate reader. Non-specific binding is determined by the addition of 10 μM cold L-691,831 compound.

[2] = test system: synthesis of LTB4 in human whole blood; experiment: Human whole blood assay (calcimycin-stimulated LTB4 synthesis); assay type: cell-based; details: Homo sapiens; read-out: Human Whole Blood LTB4 Assay for FLAP (IC50 nM)
Description: Compounds are additionally tested in a human whole blood assay to determine their ability to inhibit the synthesis of LTB4 in a cellular system. Compounds are combined with heparinized human whole blood and incubated for 15 minutes at 37° C. Calcimycin (20 μM final, prepared in phosphate-buffered saline, pH 7.4) is then added and the mixture is incubated for another 30 minutes at 37° C. The samples are centrifuged for 5 min at low speed (1500×g) and the plasma layer is removed. Plasma LTB4 concentrations are then measured using an antibody-based homogenous time-resolved fluorescence method (CisBio, Bedford, Mass.).

| Compound | IC50 [1] [nM] | IC50 [2] [nM] |
| --- | --- | --- |
| CC(C)C(C)(c1ccc(-c2cnc(N)nc2)cc1)c1c[nH]c2cccc(F)c12 (stereo not shown) [Example 58, 5-{4-[2-(4-fluoro-1H-indol-3-yl)-3-methylbutan-2-yl]phenyl}pyrimidin-2-amine] | 1.1 | 69 |
| CC(C)C(C)(c1ccc(-c2cnc(N)nc2)cc1)c1c[nH]c2c(F)cccc12 (stereo not shown) [Example 59, 5-{4-[2-(7-fluoro-1H-indol-3-yl)-3-methylbutan-2-yl]phenyl}pyrimidin-2-amine] | 0.65 | 330 |
| CC(C)C(C)(c1ccc(-c2cnc(N)nc2)cc1)c1c[nH]c2cc(F)ccc12 (stereo not shown) [Example 60, 5-{4-[2-(6-fluoro-1H-indol-3-yl)-3-methylbutan-2-yl]phenyl}pyrimidin-2-amine] | 0.86 | 170 |
| CC(C)C(C)(c1ccc(-c2cnc(N)nc2)cc1)c1cc2ccc(F)cc2[nH]1 (stereo not shown) [Example 61, 5-{4-[2-(6-fluoro-1H-indol-2-yl)-3-methylbutan-2-yl]phenyl}pyrimidin-2-amine] | 9.3 | 1200 |
| CC(C)C(C)(c1ccc(-c2cnc(N)nc2)cc1)c1cc2c(F)cccc2[nH]1 (stereo not shown) [Example 62, 5-{4-[2-(4-fluoro-1H-indol-2-yl)-3-methybutan-2-yl]phenyl}pyrimidin-2-amine] | 18 | 2300 |
| CC(C)C(C)(c1ccc(-c2cnc(N)nc2)cc1)c1c[nH]c2ccc(F)cc12 (stereo not shown) [Example 63, 5-{4-[2-(5-fluoro-1H-indol-3-yl)-3-methylbutan-2-yl]phenyl}pyrimidin-2-amine] | 3 | 440 |
| CC(C)C(C)(c1ccc(OCc2ccccn2)cc1)c1c[nH]c2cc(C(=O)O)ccc12 (stereo not shown) [Example 64, 3-[1,2-dimethyl-1-[4-(2-pyridylmethoxy)phenyl]propyl]-1H-indole-6-carboxylic acid] | 0.85 | 1400 |
| CC(C)C(C)(c1ccc(-c2cnc(N)nc2)cc1)c1c[nH]c2cc(-c3nnc(N)o3)ccc12 (stereo not shown) [Example 65, 5-[3-[1-[4-(2-aminopyrimidin-5-yl)phenyl]-1,2-dimethyl-propyl]-1H-indol-6-yl]-1,3,4-oxadiazol-2-amine] | 0.57 | 1800 |
| CC(C)C(C)(c1ccc(-c2ccc(N)nc2)cc1)c1c[nH]c2ccccc12 (stereo not shown) [Example 66, 5-{4-[2-(1H-indol-3-yl)-3-methylbutan-2-yl]phenyl}pyridin-2-amine] | 1.2 | 170 |
| CC(C)C(C)(c1ccc(-c2cnc(N)nc2)cc1)c1c[nH]c2cc(F)c(F)cc12 (stereo not shown) [Example 67, 5-{4-[2-(5,6-difluoro-1H-indol-3-yl)-3-methylbutan-2-yl]phenyl}pyrimidin-2-amine] | 3 | 340 |
| CC(C)C(C)(c1ccc(-c2cnc(N)nc2)cc1)c1c[nH]c2cc(-c3nnn[nH]3)ccc12 (stereo not shown) [Example 68, 5-(4-[3-methyl-2-[6-(1H-tetrazol-5-yl)-1H-indol-3-yl]butan-2-yl}phenyl)pyrimidin-2-amine] | 1 | > 5000 |
| Nc1ncc(-c2ccc(C3(c4nnc(-c5ccccc5)[nH]4)CCOCC3)cc2)cn1 [Example 69, 5-{4-[4-(5-phenyl-4H-1,2,4-triazol-3-yl)tetrahydro-2H-pyran-4-yl]phenyl}pyrimidin-2-amine] | 120 | 3100 |
| COC(=O)c1ccc2c(C(C)(c3ccc(-c4cnc(N)nc4)cc3)C(C)C)c[nH]c2c1 (stereo not shown) [Example 70, methyl 3-{2-[4-(2-aminopyrimidin-5-yl)phenyl]-3-methylbutan-2-yl}-1H-indole-6-carboxylate] | 0.9 | 240 |
| CC(C)C(C)(c1ccc(-c2ccc(N)nc2)cc1)c1c[nH]c2cc(-c3nnc(N)o3)ccc12 (stereo not shown) [Example 71, 5-(4-{2-[6-(5-amino-1,3,4-oxadiazol-2-yl)-1H-indol-3-yl]-3-methylbutan-2-yl}phenyl)pyridin-2-amine] | 0.72 | 1900 |
| Cn1ccc(C(O)(c2ccc(-c3cnc(N)nc3)cc2)C(C)(C)C)n1 (stereo not shown) [Example 72, 1-[4-(2-aminopyrimidin-5-yl)phenyl]-2,2-dimethyl-1-(1-methyl-1H-pyrazol-3-yl)propan-1-ol] | 110 | 2100 |
| CC(C)C(C)(c1ccc(-c2cnc(N)nc2)cc1)c1cn(Cc2nnn[nH]2)c2ccccc12 (stereo not shown) [Example 73, 5-(4-{3-methyl-2-[1-(1H-tetrazol-5-ylmethyl)-1H-indol-3-yl]butan-2-yl}phenyl)pyrimidin-2-amine] | 1.3 | > 5000 |
| Nc1ncc(-c2ccc(C3(c4n[nH]c(-c5cccnc5)n4)CCOCC3)cc2)cn1 [Example 74, 5-(4-{4-[5-(pyridin-3-yl)-1H-1,2,4-triazol-3-yl]tetrahydro-2H-pyran-4-yl}phenyl)pyrimidin-2-amine] | 780 | 3500 |
| Nc1ncc(-c2ccc(C3(c4nc5ccccc5[nH]4)CCOCC3)cc2)cn1 [Example 75, 5-{4-[4-(1H-benzimidazol-2-yl)tetrahydro-2H-pyran-4-yl]phenyl}pyrimidin-2-amine] | 380 | > 5000 |
| CC(C)C(C)(c1ccc(-c2cnc(N)nc2)cc1)c1c[nH]c2c(-c3nnc(N)o3)cccc12 (stereo not shown) [Example 76, 5-(4-{2-[7-(5-amino-1,3,4-oxadiazol-2-yl)-1H-indol-3-yl]-3-methylbutan-2-yl}phenyl)pyrimidin-2-amine] | 1.1 | 250 |
| CC(C)C(C)(c1ccc(-c2cnc(N)nc2)cc1)c1c[nH]c2cc(C(=O)N3CCOCC3)ccc12 (stereo not shown) [Example 77, (3-{2-[4-(2-aminopyrimidin-5-yl)phenyl]-3-methylbutan-2-yl}-1H-indol-6-yl)(morpholin-4-yl)methanone] | 1.7 | 640 |
| CC(C)C(C)(c1ccc(-c2cnc(N)nc2)cc1)c1c[nH]c2cc(C(=O)N3CC(O)C3)ccc12 (stereo not shown) [Example 78, (3-{2-[4-(2-aminopyrimidin-5-yl)phenyl]-3-methylbutan-2-yl}-1H-indol-6-yl)(3-hydroxyazetidin-1-yl)methanone] | 1.6 | > 5000 |
| CC(C)C(C)(c1ccc(-c2cnc(N)nc2)cc1)c1c[nH]c2cc(C(=O)N(C)CCO)ccc12 (stereo not shown) [Example 79, 3-{2-[4-(2-aminopyrimidin-5-yl)phenyl]-3-methylbutan-2-yl}-N-(2-hydroxyethyl)-N-methyl-1H-indole-6-carboxamide] | 8.5 | 2600 |
| CC(C)C(C)(c1ccc(-c2cnc(N)nc2)cc1)c1c[nH]c2cc(C(=O)N3CCC(O)C3)ccc12 (stereo not shown) [Example 80, (3-{2-[4-(2-aminopyrimidin-5-yl)phenyl]-3-methylbutan-2-yl}-1H-indol-6-yl)(3-hydroxypyrrolidin-1-yl)methanone] | 1.6 | > 5000 |
| Nc1ncc(-c2ccc(C3(c4c[nH]c5ccccc45)CCC3)cc2)cn1 [Example 81, 5-{4-[1-(1H-indol-3-yl)cyclobutyl]phenyl}pyrimidin-2-amine] | 5.1 | 370 |
| Nc1ncc(-c2ccc(C3(c4c[nH]c5cc(F)ccc45)CCC3)cc2)cn1 [Example 82, 5-{4-[1-(6-fluoro-1H-indol-3-yl)cyclobutyl]phenyl}pyrimidin-2-amine] | 0.94 | 160 |
| Nc1ncc(-c2ccc(C3(c4c[nH]c5ccc(F)cc45)CCC3)cc2)cn1 [Example 83, 5-{4-[1-(5-fluoro-1H-indol-3-yl)cyclobutyl]phenyl}pyrimidin-2-amine] | 5 | 460 |
| CC(C)C(C)(c1ccc(-c2cnc(N)nc2)cc1)c1c[nH]c2c(C(=O)O)cccc12 (stereo not shown) [Example 84, 3-[1-[4-(2-aminopyrimidin-5-yl)phenyl]-1,2-dimethyl-propyl]-1H-indole-7-carboxylic acid] | 0.7 | 3000 |
| CC(C)C(C)(c1ccc(-c2cnc(N)nc2)cc1)c1c[nH]c2cc(S(C)(=O)=O)ccc12 (stereo not shown) [Example 85, 5-(4-{3-methyl-2-[6-(methylsulfonyl)-1H-indol-3-yl]butan-2-yl}phenyl)pyrimidin-2-amine] | 0.97 | 300 |
| Cc1[nH]c2ccccc2c1C(C)(c1ccc(-c2cnc(N)nc2)cc1)C(C)C (stereo not shown) [Example 86, 5-{4-[3-methyl-2-(2-methyl-1H-indol-3-yl)butan-2-yl]phenyl}pyrimidin-2-amine] | 1.4 | 230 |
